The results in this text go back to ChEMBL document CHEMBL3868599, “Strategy for designing selective α-l-rhamnosidase inhibitors: Synthesis and biological evaluation of l-DMDP cyclic isothioureas” (Bioorg Med Chem, 2017).

The nature of experiment [1]: Competitive inhibition of Penicillium decumbens alpha-L-rhamnosidase using p-nitrophenyl-glycoside as substrate by Lineweaver-Burk plot analysis.
Experiment [2] can be described thus: Inhibition of Penicillium decumbens alpha-L-rhamnosidase using p-nitrophenyl-glycoside as substrate by spectrophotometric method.
The subject of experiment [3] is Penicillium decumbens. Put plainly: Potency index, ratio of 5-epi-deoxyrhamnojirimycin IC50 to compound IC50 for Penicillium decumbens alpha-L-rhamnosidase.
Experiment [4] deals with Penicillium decumbens. Kind of experiment: Inhibition of Penicillium decumbens alpha-L-rhamnosidase at 750 uM relative to control.
The test system of experiment [5] is Penicillium decumbens. Kind of experiment: Inhibition of Penicillium decumbens alpha-L-rhamnosidase at 1000 uM relative to control.
Experiment [6] deals with T1, Uncharacterized protein (Sus scrofa) (UniProt I3LIR5).
T1 sequence (whole entry): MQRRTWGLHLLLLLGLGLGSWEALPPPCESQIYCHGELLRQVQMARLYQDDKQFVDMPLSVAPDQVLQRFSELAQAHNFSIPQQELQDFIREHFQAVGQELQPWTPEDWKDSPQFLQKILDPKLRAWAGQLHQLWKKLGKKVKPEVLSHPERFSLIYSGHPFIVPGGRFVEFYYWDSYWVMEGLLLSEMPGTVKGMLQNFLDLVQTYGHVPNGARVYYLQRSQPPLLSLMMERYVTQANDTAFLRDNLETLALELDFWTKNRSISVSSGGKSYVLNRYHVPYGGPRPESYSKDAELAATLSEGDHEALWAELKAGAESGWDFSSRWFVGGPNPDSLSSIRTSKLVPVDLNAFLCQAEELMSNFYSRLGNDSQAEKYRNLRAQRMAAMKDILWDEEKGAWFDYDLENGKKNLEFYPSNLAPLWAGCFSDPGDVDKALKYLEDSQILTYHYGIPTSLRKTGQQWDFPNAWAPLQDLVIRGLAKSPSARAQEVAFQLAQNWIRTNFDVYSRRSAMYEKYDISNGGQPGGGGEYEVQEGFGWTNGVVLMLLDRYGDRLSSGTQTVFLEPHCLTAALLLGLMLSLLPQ
Kind of experiment: Inhibition of porcine kidney trehalase assessed as D-glucose level at 100 uM using maltose as substrate measured after 10 to 30 mins.

The target of experiment [7] is T2, Beta-galactosidase (Bos taurus) (UniProt Q58D55).
T2 sequence (whole entry): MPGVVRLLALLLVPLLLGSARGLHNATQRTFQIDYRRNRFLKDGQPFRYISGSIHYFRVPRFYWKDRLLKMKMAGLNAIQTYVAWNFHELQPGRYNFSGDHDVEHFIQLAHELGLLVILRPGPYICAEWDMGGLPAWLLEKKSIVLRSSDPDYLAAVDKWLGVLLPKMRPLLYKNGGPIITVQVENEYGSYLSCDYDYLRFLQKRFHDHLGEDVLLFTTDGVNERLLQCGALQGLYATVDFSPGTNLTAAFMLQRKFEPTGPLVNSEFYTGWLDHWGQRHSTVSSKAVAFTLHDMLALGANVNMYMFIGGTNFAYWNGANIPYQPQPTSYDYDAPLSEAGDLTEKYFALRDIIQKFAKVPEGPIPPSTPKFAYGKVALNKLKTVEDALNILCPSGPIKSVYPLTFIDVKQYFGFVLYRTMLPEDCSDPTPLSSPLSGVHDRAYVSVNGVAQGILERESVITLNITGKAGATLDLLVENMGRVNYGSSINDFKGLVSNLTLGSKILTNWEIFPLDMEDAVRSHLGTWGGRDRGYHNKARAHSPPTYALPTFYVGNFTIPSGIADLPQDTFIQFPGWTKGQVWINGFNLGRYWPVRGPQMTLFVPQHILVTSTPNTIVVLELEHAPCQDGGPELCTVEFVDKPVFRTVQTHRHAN
Kind of experiment: Inhibition of bovine liver beta-galactosidase using p-nitrophenyl-glycoside as substrate by spectrophotometric method. As to conditions: concentration not given here.

The next experiment concerns Prunus dulcis. Kind of experiment: Inhibition of almond beta-glucosidase at 100 uM using p-nitrophenyl-glycoside as substrate by spectrophotometric method.
The species named for experiment [8] is Homo sapiens. Put plainly: Inhibition of human lysosomal beta-glucosidase at 100 uM using 4-methylumbelliferyl-beta-D-glucopyranoside as substrate preincubated for 45 mins followed by substrate addition measured after 30 mins by fluorescence spectrophotometric method.
The next experiment is filed under the species Rattus norvegicus. Kind of experiment: Inhibition of rat intestinal maltase assessed as D-glucose level at 100 uM using maltose as substrate measured after 10 to 30 mins.
A short description of experiment [9]: Inhibition of bovine liver beta-glucosidase using p-nitrophenyl-glycoside as substrate by spectrophotometric method. More on the design: species or system Bos taurus.
In experiment [10] the test system is Escherichia coli. Kind of experiment: Inhibition of Escherichia coli beta-glucuronidase at 100 uM using p-nitrophenyl-glycoside as substrate by spectrophotometric method.
The test system of the next experiment is Oryza sativa. Kind of experiment: Inhibition of rice alpha-glucosidase at 100 uM using p-nitrophenyl-glycoside as substrate by spectrophotometric method.
Experiment [11] addresses T3, Tissue alpha-L-fucosidase (Bos taurus) (UniProt Q2KIM0).
T3 sequence (whole entry): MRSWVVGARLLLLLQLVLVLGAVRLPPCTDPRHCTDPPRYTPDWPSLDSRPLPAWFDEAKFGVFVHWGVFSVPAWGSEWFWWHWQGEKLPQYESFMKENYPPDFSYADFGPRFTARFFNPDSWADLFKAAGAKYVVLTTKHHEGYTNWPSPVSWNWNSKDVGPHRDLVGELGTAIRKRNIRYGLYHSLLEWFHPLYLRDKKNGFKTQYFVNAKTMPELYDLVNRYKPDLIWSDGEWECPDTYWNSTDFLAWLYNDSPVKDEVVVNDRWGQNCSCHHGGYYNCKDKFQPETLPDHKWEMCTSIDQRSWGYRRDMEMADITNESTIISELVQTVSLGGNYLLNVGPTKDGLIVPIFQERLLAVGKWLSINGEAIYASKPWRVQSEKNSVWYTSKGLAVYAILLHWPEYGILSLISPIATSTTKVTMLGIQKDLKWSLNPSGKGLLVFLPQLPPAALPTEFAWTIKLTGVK
Put plainly: Inhibition of bovine kidney alpha-L-fucosidase at 100 uM using p-nitrophenyl-glycoside as substrate by spectrophotometric method.

The test system of a further experiment is Aspergillus niger. Put plainly: Inhibition of Aspergillus niger amyloglucosidase assessed as D-glucose level at 100 uM using maltose as substrate measured after 10 to 30 mins.
Experiment [12] concerns Penicillium decumbens. Put plainly: Inhibition of Penicillium decumbens alpha-L-rhamnosidase at 1000 uM using p-nitrophenyl-glycoside as substrate by spectrophotometric method.
Experiment [13] can be described thus: Inhibition of Helix pomatia beta-mannosidase using p-nitrophenyl-glycoside as substrate by spectrophotometric method.
Experiment [14] is described as follows: Inhibition of almond beta-glucosidase using p-nitrophenyl-glycoside as substrate by spectrophotometric method. More on the design: species or system Prunus dulcis.
Experiment [15] has as its system Escherichia coli. Put plainly: Inhibition of Escherichia coli beta-galactosidase at 1000 uM using p-nitrophenyl-glycoside as substrate by spectrophotometric method.
Experiment [16] in a line: Inhibition of yeast alpha-glucosidase using p-nitrophenyl-glycoside as substrate by spectrophotometric method. More on the design: species or system Saccharomyces cerevisiae.
The species entered for experiment [17] is Homo sapiens. Put plainly: Inhibition of human lysosomal beta-glucosidase at 1000 uM using 4-methylumbelliferyl-beta-D-glucopyranoside as substrate preincubated for 45 mins followed by substrate addition measured after 30 mins by fluorescence spectrophotometric method.
Experiment [18] is described as follows: Inhibition of Aspergillus niger amyloglucosidase assessed as D-glucose level using maltose as substrate measured after 10 to 30 mins.
Experiment [19] concerns the target T4, Alpha-mannosidase (Canavalia ensiformis) (UniProt C0HJB3).
T4 sequence (whole entry): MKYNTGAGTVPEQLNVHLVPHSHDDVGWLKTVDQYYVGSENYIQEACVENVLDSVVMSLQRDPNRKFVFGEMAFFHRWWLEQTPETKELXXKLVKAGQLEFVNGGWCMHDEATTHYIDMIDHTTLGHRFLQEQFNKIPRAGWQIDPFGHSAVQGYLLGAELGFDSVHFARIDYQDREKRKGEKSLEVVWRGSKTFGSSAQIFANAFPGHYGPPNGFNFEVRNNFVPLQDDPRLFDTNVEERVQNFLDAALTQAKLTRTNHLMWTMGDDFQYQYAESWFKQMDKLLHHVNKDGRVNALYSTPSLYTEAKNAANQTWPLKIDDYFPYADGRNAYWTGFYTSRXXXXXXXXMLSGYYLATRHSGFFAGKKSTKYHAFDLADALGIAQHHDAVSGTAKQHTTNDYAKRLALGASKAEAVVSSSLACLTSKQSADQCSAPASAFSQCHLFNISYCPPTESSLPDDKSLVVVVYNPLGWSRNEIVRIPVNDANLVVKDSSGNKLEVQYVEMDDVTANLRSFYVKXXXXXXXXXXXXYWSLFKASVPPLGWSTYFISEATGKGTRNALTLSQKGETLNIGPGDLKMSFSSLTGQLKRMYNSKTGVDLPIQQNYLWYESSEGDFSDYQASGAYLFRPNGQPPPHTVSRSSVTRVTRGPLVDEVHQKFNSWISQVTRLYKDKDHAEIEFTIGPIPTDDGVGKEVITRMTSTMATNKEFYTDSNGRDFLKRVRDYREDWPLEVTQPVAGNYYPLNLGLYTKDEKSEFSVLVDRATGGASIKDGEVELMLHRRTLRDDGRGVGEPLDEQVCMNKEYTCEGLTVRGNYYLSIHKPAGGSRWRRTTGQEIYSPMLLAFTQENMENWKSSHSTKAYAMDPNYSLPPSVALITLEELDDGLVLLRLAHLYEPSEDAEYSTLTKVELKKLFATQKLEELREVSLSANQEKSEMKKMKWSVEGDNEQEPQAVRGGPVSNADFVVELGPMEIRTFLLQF
Kind of experiment: Inhibition of Jack bean alpha-mannosidase at 1000 uM preincubated for 45 mins followed by addition of p-nitrophenyl-glycoside as substrate measured after 30 mins by fluorescence spectrophometry.

For the next experiment, the system named is Coffea. Put plainly: Inhibition of coffee bean alpha-galactosidase at 1000 uM using p-nitrophenyl-glycoside as substrate by spectrophotometric method.

Some results are limits rather than exact numbers.

As to `OC[C@H]1[C@H](O)[C@@H](O)[C@@H]2CS/C(=N/Cc3ccc(Cl)c(Cl)c3)N12`, the inhibition constant Ki – broadly, the dissociation constant of the complex between target and ligand, obtained from inhibition or displacement – in [1] amounted to 0.11 µM. Also, the 50% inhibitory concentration (IC50) (in general, the point on the concentration scale where inhibition reaches its midpoint) in experiment [2] was determined as 0.23 µM. In the experiment with Penicillium decumbens [3], the Ratio IC50 amounted to 46.
On to `C[C@@H]1NC[C@H](O)[C@H](O)[C@H]1O`, for which the inhibition (in general, the share of the control response that was lost under treatment) with Penicillium decumbens [4] was less than 50%.
`OC[C@@H]1NC[C@H](O)[C@@H]1O` yielded an inhibition in the experiment with Penicillium decumbens [5] of less than 50%.
On to `OC[C@H]1[C@H](O)[C@@H](O)[C@@H]2CS/C(=N/CCCCCCCCCc3ccccc3)N12`, for which the inhibition (in experiment [6]; in experiment [7]; in the experiment on Prunus dulcis; in the experiment filed under Homo sapiens [8]; in the experiment filed under Rattus norvegicus; with Escherichia coli [10]) was less than 50% in each case. For the same compound, the inhibition (with Oryza sativa; in experiment [11]; with Aspergillus niger) was less than 50% each time. In addition, the IC50 in experiment [9] was 33 µM; in [2], 0.87 µM.
In the case of `OC[C@H]1N[C@H](CO)[C@@H](O)[C@@H]1O`, the inhibition (in the experiment with Penicillium decumbens [12]; in the experiment on Escherichia coli [15]; in the experiment listed under Homo sapiens [17]; in experiment [19]; with Coffea) was less than 50% in each case. Also, the IC50 amounted to 721 µM in experiment [13]; 9.7 µM in experiment [9]; 10 µM in experiment [14]; 7.8 µM in [16]; 116 µM in experiment [18].
